In patent publication US6706663B2, “Herbicidal 3-heterocyclic substituted benzisothiazole and benzisoxazole compounds” (Wyeth, priority 2000, dated 2004):

Columns and labels:
ORYSAT (Rice, Tebonnet) [1] = experiment: Flooded paddy, post-transplant and postemergence rice tolerance; type: in vivo, Oryza sativa, (L.) Tebonnet; conditions: post-transplant rice, rated 3-4 weeks after treatment
Excerpt: (§1) Results of herbicide evaluation are expressed on a rating scale (0-9). The scale is based upon a visual observation of plant stand, vigor, malformation, size, chlorosis and overall plant appearance as compared with a control.
(§2) Plastic containers containing weeds which are 3 to 5 cm tall and rice seedlings at the 1.5 to 2.5 leaf stage are flooded with water. The water is maintained at 1.5 to 3 cm above the soil surface for the duration of the experiment. Test compounds are applied as aqueous/acetone mixtures 50/50 v/v directly into the flood water to provide the equivalent of about 0.0320 to 0.2500 kg/ha of active ingredient. The treated containers are placed on greenhouse benches and cared for in accordance with conventional greenhouse procedures. Three to four weeks after treatment, the test is terminated and each container is examined and herbicidal effect rated according to the rating system provided in Example 87. The compounds evaluated are identified in Example 87 and plant species used are identified in Example 89.

[2] = tested on: MOOVA (Monochoria vaginalis); experiment: Flooded paddy, preemergence weed control; type: in vivo, Presl.; conditions: rated 3-4 weeks after treatment, 0-9 rating scale
Summary of the method: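 Visual 0–9 ratings versus controls scored stand, vigor, malformation, size, chlorosis and overall appearance. Plants grew from seeds or propagating organs sown 0.5 cm deep in silt loam, with water held 1.5–3 cm above the soil for the whole test under greenhouse care.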

[3] = tested on: MOOVA (Monochoria vaginalis); experiment: Flooded paddy, postemergence weed control; type: in vivo, Presl.; conditions: postemergence weeds, rated 3-4 weeks after treatment
Excerpt: as §1, §2

SETVI (Setaria viridis) [4] = experiment: Postemergence herbicidal evaluation; type: in vivo, (L.) Beau; conditions: for SETVI herbicidal rating: postemergence
Summary of the method: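 Seedlings grown about two weeks were sprayed with compound in 50/50 acetone/water containing 0.5% TWEEN 20, at about 0.0040 to 1.000 kg/ha via nozzle at 40 psi. Plants were kept under greenhouse conditions and visually rated on a 0-9 scale versus control four to five weeks after treatment; replicate tests averaged.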

[5] = tested on: TRZAWR (Wheat, Winter, cv Riband); experiment: Postemergence herbicidal evaluation; type: in vivo, Triticum aestivum; conditions: for TRZAWR herbicidal rating: postemergence
Summary of the method: (§3)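 Seedlings grown for about two weeks were sprayed postemergence and then kept under standard greenhouse care. Injury was rated visually 4–5 weeks after treatment on a 0–9 scale against untreated controls, and ratings from repeat tests were averaged.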

[6] = tested on: ECHCG (Echinochloa crus-galli); experiment: Preemergence herbicidal evaluation; type: in vivo, (L.) Beau; conditions: rated 4-5 weeks after treatment
Summary of the method: (§4)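 Each species was sown separately in potting soil over roughly one inch of soil, and the surface sprayed with compound dissolved in aqueous acetone. Assessment used a 0–9 visual scale against a control after four to five weeks.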

SETVI (Setaria viridis) [7] = experiment: Preemergence herbicidal evaluation; type: in vivo, (L.) Beau; conditions: rated 4-5 weeks after treatment
Summary of the method: as §4

[8] = tested on: ECHORC (Echinochloa oryzoides); experiment: Flooded paddy, postemergence weed control; type: in vivo, Echinochloa oryzoides (Ard.) Fritsch.; conditions: postemergence weeds, rated 3-4 weeks after treatment
Excerpt: as §1, §2

CYPIR (Cyperus iria) = experiment: Flooded paddy, postemergence weed control; type: in vivo; conditions: postemergence weeds, rated 3-4 weeks after treatment
Excerpt: as §1, §2

[9] = tested on: CYPSE (Cyperus serotinus); experiment: Flooded paddy, postemergence weed control; type: in vivo, Rottb.; conditions: postemergence weeds, rated 3-4 weeks after treatment
Excerpt: as §1, §2

[10] = tested on: SAGPY (Sagittaria pygmaea); experiment: Flooded paddy, postemergence weed control; type: in vivo, L.; conditions: postemergence weeds, rated 3-4 weeks after treatment
Excerpt: as §1, §2

[11] = tested on: ABUTH (Abutilon theophrasti); experiment: Preemergence herbicidal evaluation; type: in vivo, Medic.; conditions: rated 4-5 weeks after treatment
ORYSAT (Rice, Tebonnet) [12] = experiment: Postemergence herbicidal evaluation; type: in vivo, Oryza sativa, (L.) Tebonnet; conditions: for ORYSAT herbicidal rating: postemergence
Summary of the method: as §3

In the case of “1-methyl-3-[3-(1,3-oxathian-2-yl)-1,2-benzisothiazol-5-yl]-6-(trifluoromethyl)uracil S′,S′-dioxide [Compound 35]”, the “herbicide rating (0-9) ORYSAT (rice tolerance)” value (from here on “herbicide rating (0-9) ORYSAT”) (ORYSAT (Rice, Tebonnet) [1]; 0.0620 kg/ha into flood water) is reported as 3.0, the “herbicide rating (0-9) ORYSAT” value (ORYSAT (Rice, Tebonnet) [1]; 0.1250 kg/ha into flood water) is reported as 4.0 and the “herbicide rating (0-9) ORYSAT” value (ORYSAT (Rice, Tebonnet) [1]; 0.2500 kg/ha into flood water) is reported as 5.0. The “herbicidal rating, MOOVA” value ([2]; rate 0.0080 kg/ha) was 0.0, the “herbicidal rating, MOOVA” value ([2]; rate 0.0080 kg/ha, listed as 82) was 8.5 and the “herbicidal rating, MOOVA” value ([2]; rate 0.0320 kg/ha) was 5.0. The “herbicidal rating, MOOVA” value ([2]; rate 0.0320 kg/ha, listed as 82) was 9.0, the “herbicidal rating, MOOVA” value ([2]; rate 0.1250 kg/ha) was 9.0 and the “herbicide rating (0-9) MOOVA” value ([3]; 0.0620 kg/ha into flood water) was 9.0. For the same substance, the “herbicide rating (0-9) MOOVA” value ([3]; 0.1250 kg/ha into flood water) was 9.0, the “herbicide rating (0-9) MOOVA” value ([3]; 0.2500 kg/ha into flood water) was 9.0 and the SETVI herbicidal rating (SETVI (Setaria viridis) [4]; rate 0.0320 kg/ha) was 3.0. The SETVI herbicidal rating (SETVI (Setaria viridis) [4]; rate 0.0620 kg/ha) was 4.0, the “Postemergence herbicidal rating, SETVI” value (SETVI (Setaria viridis) [4]; rate 0.0320 kg/ha) was 9.0 and the “Postemergence herbicidal rating, SETVI” value (SETVI (Setaria viridis) [4]; rate 0.0620 kg/ha) was 9.0. The TRZAWR herbicidal rating ([5]; rate 0.0320 kg/ha) was 1.5, the TRZAWR herbicidal rating ([5]; rate 0.0620 kg/ha) was 1.5 and the “Postemergence herbicidal rating, TRZAWR” value ([5]; rate 0.0320 kg/ha) was 7.0. The “Postemergence herbicidal rating, TRZAWR” value ([5]; rate 0.0620 kg/ha) was 7.5, the “ECHCG preemergence herbicidal rating” value ([6]; Rate 0.0620 kg/ha) was 8.0 and the “Preemergence herbicidal rating ECHCG” value ([6]; Rate 0.0620 kg/ha) was 3.0. The “ECHCG preemergence herbicidal rating” value ([6]; Rate 0.1250 kg/ha) was 9.0, the “Preemergence herbicidal rating ECHCG” value ([6]; Rate 0.1250 kg/ha) was 6.0 and the “ECHCG preemergence herbicidal rating” value ([6]; Rate 0.2500 kg/ha) was 9.0. The “Preemergence herbicidal rating ECHCG” value ([6]; Rate 0.2500 kg/ha) was 7.5, the “SETVI preemergence herbicidal rating” value (SETVI (Setaria viridis) [7]; Rate 0.0620 kg/ha) was 9.0 and the “Preemergence herbicidal rating SETVI” value (SETVI (Setaria viridis) [7]; Rate 0.0620 kg/ha) was 8.0. The “SETVI preemergence herbicidal rating” value (SETVI (Setaria viridis) [7]; Rate 0.1250 kg/ha) was 9.0, the “Preemergence herbicidal rating SETVI” value (SETVI (Setaria viridis) [7]; Rate 0.1250 kg/ha) was 9.0 and the “SETVI preemergence herbicidal rating” value (SETVI (Setaria viridis) [7]; Rate 0.2500 kg/ha) was 9.0. The “Preemergence herbicidal rating SETVI” value (SETVI (Setaria viridis) [7]; Rate 0.2500 kg/ha) was 9.0, the “herbicide rating (0-9) ECHORC” value ([8]; 0.0620 kg/ha into flood water) was 4.0 and the “herbicide rating (0-9) ECHORC” value ([8]; 0.1250 kg/ha into flood water) was 4.0. For the same substance, the “herbicide rating (0-9) ECHORC” value ([8]; 0.2500 kg/ha into flood water) was 9.0, the “herbicide rating (0-9) CYPIR” value (CYPIR (Cyperus iria); 0.0620 kg/ha into flood water) was 9.0 and the “herbicide rating (0-9) CYPIR” value (CYPIR (Cyperus iria); 0.1250 kg/ha into flood water) was 9.0. For the same substance, the “herbicide rating (0-9) CYPIR” value (CYPIR (Cyperus iria); 0.2500 kg/ha into flood water) was 9.0, the “herbicide rating (0-9) CYPSE” value ([9]; 0.0620 kg/ha into flood water) was 0.0 and the “herbicide rating (0-9) CYPSE” value ([9]; 0.1250 kg/ha into flood water) was 0.0. The “herbicide rating (0-9) CYPSE” value ([9]; 0.2500 kg/ha into flood water) was 9.0, the “herbicide rating (0-9) SAGPY” value ([10]; 0.0620 kg/ha into flood water) was 0.0 and the “herbicide rating (0-9) SAGPY” value ([10]; 0.1250 kg/ha into flood water) was 0.0. For the same substance, the “herbicide rating (0-9) SAGPY” value ([10]; 0.2500 kg/ha into flood water) was 0.0, the “ABUTH preemergence herbicidal rating” value ([11]; Rate 0.0620 kg/ha) was 9.0 and the “Preemergence herbicidal rating ABUTH” value ([11]; Rate 0.0620 kg/ha) was 4.5. For the same substance, the “ABUTH preemergence herbicidal rating” value ([11]; Rate 0.1250 kg/ha) was 9.0, the “Preemergence herbicidal rating ABUTH” value ([11]; Rate 0.1250 kg/ha) was 9.0 and the “ABUTH preemergence herbicidal rating” value ([11]; Rate 0.2500 kg/ha) was 9.0. The “Preemergence herbicidal rating ABUTH” value ([11]; Rate 0.2500 kg/ha) was 9.0, the ORYSAT herbicidal rating (ORYSAT (Rice, Tebonnet) [12]; rate 0.0320 kg/ha) was 1.5 and the ORYSAT herbicidal rating (ORYSAT (Rice, Tebonnet) [12]; rate 0.0620 kg/ha) was 2.5. The “Postemergence herbicidal rating, ORYSAT” value (ORYSAT (Rice, Tebonnet) [12]; rate 0.0320 kg/ha) was 6.5 and the “Postemergence herbicidal rating, ORYSAT” value (ORYSAT (Rice, Tebonnet) [12]; rate 0.0620 kg/ha) was 6.5.
